Test results as given in patent publication US4338330A, “Benzimidazole derivatives, their use, and compositions containing these derivatives” (Continental Pharma, priority 1979, dated 1982).
“Also recorded” adds a separate entry of the source.

Experiments:
[1] = LD50 in mice, oral (Lichtfield and Wilcoxon method); format: in vivo; conditions: mouse, in vivo, po, read-out: LD50
Experimental: LD50 were determined according to the Lichtfield and Wilcoxon method (J. Pharmacol. Exp. Ther. 96, 99, 1949) and expressed in mg/kg. The products were administered to mice orally.

platelet agglutination = assay: Inhibition of platelet agglutination in plasma (turbidimetric method, Thrombofax); format: cell-based; conditions: plasma rich in platelets, preincubated 4 minutes
Experimental: The measure of platelet agglutination inhibition was made according to the turbidimetric method of G. V. R. Born and M. J. Cross (J. Physiol., 168, 178, […]). The plasma rich in platelets was preincubated for 4 minutes before addition of the inducing agent, namely Thrombofax. The variations of turbidity were recorded for a period of 10 minutes with a "Chronolog" agglutinometer. The inhibition of the maximum amplitude of agglutination was measured.

[2] = test system: isolated guinea pig auricles; assay: Chronotrope effect of the substance on isolated auricles; conditions: 10^-6 M, 20 minutes, Tyrode, 29° C.
Experimental: The β-lytic effect was searched on the chronotropic response to noradrenaline of isolated guinea pig auricles. Auricles were incubated for 20 minutes in a Tyrode solution at 29° C. in the presence of the substance to be tested at the concentration of 10^-6 M. A positive (+) or negative (-) chronotrope effect of the substance was noted using the following scores: […]

[3] = test system: β1 cardiac receptors versus β2 tracheal receptors; assay: Cardioselectivity (auricles versus trachea); parameters: species or system guinea pig
Experimental: (§1) The effect on β1 cardiac receptors is measured by inhibition of the chronotropic response to noradrenaline of guinea pig auricles and of the inotrope response to isoproterenol of guinea pig left auricles which were electrically stimulated. The cardioselectivity is appreciated by measuring the antagonist effect at the level of β2 receptors of the guinea pig trachea. To this end, a tracheal chain is contracted by a maximum concentration of histamine and inhibition of relaxation by isoproterenol is measured. The values calculated for cardioselectivity are obtained by considering the difference between pA2 values of the chronotrope response and the relaxation on the one hand (1st column) and of the inotrope response and relaxation on the other hand (2nd column). For these various experiences, pA2 is calculated according to the Van Rossum method (Arch. Inern. Pharmacodyn., 143, 299-330, 1963).

peripheral β2 receptors = assay: Cardioselectivity in vivo, anesthetised dog: peripheral β2 receptors; conditions: 30 μg/kg i.v.
[4] = test system: guinea pig ileum contractions induced by histamine; assay: Antispasmodic activity against ileum contractions induced by histamine
Experimental: (§2) The antispasmodic activity of the studied substances was examined against guinea pig ileum contractions induced by histamine and acetylcholine.
(§3) These experiences allow to make it obvious an antihistaminic, anticholinergic or musculotrope activity. The response to the contracting agent (sub-maximum concentration) is obtained every 5 minutes before and after injection of increasing concentrations of tested products (10^-7 M to 10^-4 M). The inhibition percentage under the influence of tested products is calculated and the theoretical concentration giving 50% of inhibition is graphically determined for each experience. These values are expressed in -log CI50 (M).

[5] = test system: guinea pig ileum contractions induced by acetylcholine; assay: Antispasmodic activity against ileum contractions induced by acetylcholine
Experimental: as §2, §3

β1 cardiac receptors [6] = target: T1, β1 cardiac receptors (Cavia porcellus, UniProt H0W3H1); assay: β-lytic activity: inhibition of chronotropic response to noradrenaline of auricles (pA2); parameters: species or system guinea pig
T1 construct: chronotropic response to noradrenaline of guinea pig auricles; from tissue; host or cells: guinea pig auricles (chronotropic response); electrically stimulated guinea pig left auricles (inotropic response)
T1 sequence (H0W3H1 1-470): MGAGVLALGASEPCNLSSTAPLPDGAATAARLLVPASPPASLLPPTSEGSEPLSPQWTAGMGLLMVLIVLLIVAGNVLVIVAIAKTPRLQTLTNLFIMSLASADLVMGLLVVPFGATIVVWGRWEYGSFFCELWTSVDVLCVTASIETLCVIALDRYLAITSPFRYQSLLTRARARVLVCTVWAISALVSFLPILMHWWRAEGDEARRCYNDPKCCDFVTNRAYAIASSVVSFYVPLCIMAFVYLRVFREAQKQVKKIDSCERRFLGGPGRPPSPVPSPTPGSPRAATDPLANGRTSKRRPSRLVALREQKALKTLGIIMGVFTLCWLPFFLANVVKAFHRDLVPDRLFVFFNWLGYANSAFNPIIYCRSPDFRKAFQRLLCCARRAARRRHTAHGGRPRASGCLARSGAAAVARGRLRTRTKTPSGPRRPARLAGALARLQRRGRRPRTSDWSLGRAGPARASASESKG
Experimental: as §1, with “column).” for “column). For these various experiences, pA2 is calculated according to the Van Rossum method (Arch. Inern. Pharmacodyn., 143, 299-330, 1963).”

[7] = Antihypertensive activity, oral, unanesthetized spontaneously hypertensive rats; format: in vivo; conditions: 60 mg/kg oral; for Antihypertensive activity (score): spontaneously hypertensive rats
Experimental: […] Only rats having a systolic pressure of 180 to 220 mm Hg are used. Two rats are used by product. The treatments are administered without the knowledge of the person making the measure.
The antihypertensive effects were recorded according to a score followed by an index. The scoring system is as follows.
The index is calculated by multiplying the systolic pressure difference (cmHg) measured every 30 minutes after the treatment, by a coefficient of 1 to 6 corresponding to times of 30 to 180 minutes.

[8] = test system: chronotropic response to noradrenaline of isolated guinea pig auricles; assay: β-lytic effect on the chronotropic response to noradrenaline of isolated auricles
Experimental: The β-lytic effect was searched on the chronotropic response to noradrenaline of isolated guinea pig auricles. Auricles were incubated for 20 minutes in a Tyrode solution at 29° C. in the presence of the substance to be tested at the concentration of 10^-6 M. A positive (+) or negative (-) chronotrope effect of the substance was noted using the following scores:
Then, the chronotrope effect of cumulative increasing concentrations of noradrenaline was recorded. The pD2 (-log CE50) value was calculated. A score of β-lytic activity of the substance was given as follows:
If the score at concentration of 10^-6 M was 3 or 4, the effect of the substance was examined at concentration of 10^-7 M and a score was recorded according to the same procedure.

[9] = test system: tachycardia caused by isoprotenenol; assay: β-lytic activity in vigile rat (antagonism of tachycardia caused by isoproterenol); format: in vivo; conditions: 10 mg/kg orally; isoproterenol 0.1 mg/kg transcutaneously
β1 cardiac receptors [10] = target: T1, β1 cardiac receptors; assay: β-lytic activity: inhibition of inotrope response to isoproterenol of electrically stimulated left auricles (pA2); parameters: species or system guinea pig; conditions: isoproterenol, electrically stimulated left auricles; read-out: β-lytic activity, pA2 auricles inotrope response (converted)
Experimental: as §1, with “column).” for “column). For these various experiences, pA2 is calculated according to the Van Rossum method (Arch. Inern. Pharmacodyn., 143, 299-330, 1963).”

[11] = target: T2, β2 receptors of the guinea pig trachea (Cavia porcellus, UniProt Q8K4Z4); assay: Antagonist effect on relaxation of trachea by isoproterenol (pA2); conditions: histamine-contracted tracheal chain, read-out: β-lytic activity, pA2 trachea relaxation (converted)
T2 construct: β2 receptors of the guinea pig trachea; from tissue; host or cells: guinea pig tracheal chain contracted by histamine
T2 sequence (Q8K4Z4 whole entry): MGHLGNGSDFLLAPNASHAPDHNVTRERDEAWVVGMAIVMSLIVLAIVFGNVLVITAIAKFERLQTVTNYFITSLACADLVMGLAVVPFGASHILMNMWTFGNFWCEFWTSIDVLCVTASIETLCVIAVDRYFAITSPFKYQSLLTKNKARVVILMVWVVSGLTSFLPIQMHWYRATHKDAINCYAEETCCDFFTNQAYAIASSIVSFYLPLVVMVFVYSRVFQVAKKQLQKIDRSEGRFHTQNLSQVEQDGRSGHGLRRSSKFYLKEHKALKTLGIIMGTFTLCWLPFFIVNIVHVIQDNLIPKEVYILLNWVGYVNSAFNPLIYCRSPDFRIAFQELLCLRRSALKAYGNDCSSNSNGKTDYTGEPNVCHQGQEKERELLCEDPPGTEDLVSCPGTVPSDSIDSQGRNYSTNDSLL
Experimental: as §1, with “column).” for “column). For these various experiences, pA2 is calculated according to the Van Rossum method (Arch. Inern. Pharmacodyn., 143, 299-330, 1963).”

cardiac receptors = assay: Cardioselectivity in vivo, anesthetised dog: cardiac receptors; conditions: 30 μg/kg i.v.
[12] = Peripheral vasodilator activity, anesthetized dog, femoral arterial circulation; format: in vivo; conditions: 30 μg/kg injected directly
Experimental: The peripheral vasodilator activity was measured on anesthetized dog at the level of femoral arterial circulation. To this end, the femoral artery the collaterals of which have been ligated is perfused at constant rate with blood taken from aorta. The perfusion pressure measured at the level of the femoral artery thus varies as a function of the resistance of the perfused area. The tested products and the corresponding solvents are directly injected at the dose of 30 μg/kg. The cardiac output being maintained constant, a vasodilation is thus measured by a decrease of the perfusion pressure. The latter is scored in comparison with the action of papaverine, considered as a reference and injected one time by group of 4 products. When interesting, the products are tested with other doses under the same conditions.
The vasodilator activity is appreciated as follows: […]

| Structure (SMILES) | LD50 [1] | Inhibition of platelet agglutination (platelet agglutination) | Chronotrope effect (score) [2] | Cardioselectivity ([3]; Table III, from pA2 auricles and trachea) | times more active on β cardiac receptors than on β2 receptors ([3]; from difference of pA2 on auricles and trachea) | Cardioselectivity (in words) ([3]; guinea pig auricles vs trachea) | Effect on stimulation of peripheral β2 receptors (peripheral β2 receptors) | Antispasmodic activity, Hist. (-log CI50 (M)) [4] | Antispasmodic activity, Ac. Chol. (-log CI50 (M)) [5] | Activity on β cardiac receptors (in words) (β1 cardiac receptors [6]) | Kb (β1 cardiac receptors [6]; noradrenaline, read-out: β-lytic activity, pA2 auricles chronotrope response (converted)) | Antihypertensive activity (score) [7] | Antihypertensive activity (index) ([7]; systolic pressure difference (cmHg) every 30 min multiplied by time coefficient 1 to 6) | β-lytic effect (score) ([8]; 10^-6 M) | β-lytic effect (score) ([8]; 10^-7 M) | β-lytic activity in vigile rat [9] | Kb (β1 cardiac receptors [10]) | Kb [11] | Blocking of stimulation of cardiac receptors (cardiac receptors) | Peripheral vasodilator activity [12] |
| --- | --- | --- | --- | --- | --- | --- | --- | --- | --- | --- | --- | --- | --- | --- | --- | --- | --- | --- | --- | --- |
| CC(C)NCC(O)COc1ccc(-c2nc3ccccc3[nH]2)cc1 (stereo not shown) [Compound 1, 2-[4-(3-isopropylamino-2-hydroxypropoxy)phenyl]benzimidazole] | 2300 mg/kg | active | 0 (if the frequency modification was comprised between +6 and -6) | 1.73 | 2140 times | important cardioselectivity; also recorded: much higher than that of metopropol and atenolol | without affecting that of peripheral β2 receptors | 5.18 -log CI50 (M) | 5.21 -log CI50 (M) | active β-agents on β cardiac receptors | 13.5 nM | ++++ (reduction>50 mm Hg) | 174 | 3 (if 6.00≥pD2 ≥5.51) | 2 (if 6.40≥pD2 ≥6.01) | demonstrated | 35.5 nM | 28800 nM | blocks stimulation of cardiac receptors |  |
| CCCCCCCCNCC(O)COc1ccc(-c2nc3ccccc3[nH]2)cc1 (stereo not shown) [Compound 2, 2-[4-(3-n-octylamino-2-hydroxypropoxy)phenyl]benzimidazole] | > 300 mg/kg | active |  |  |  |  |  | 6.46 -log CI50 (M) | 6.64 -log CI50 (M) |  |  | 0 (reduction <10 mm Hg) |  |  |  |  |  |  |  | active |
